This is an account of results in paper PMC12480552 (Scientific Reports, 2025).

Structures are written as SMILES. Like-named read-outs stand apart in the source and are kept apart here.

What is called fraction unbound is the share of the substance not bound to proteins or other matrix.

One data set is described as follows: in vivo. Conditions: male, rhesus monkey; for Kp / Kp uu: brain. The protocol:
Animals were randomized using the GSK Randomization App 2.0, which is an internal software tool that uses the ‘sample’ function in R to randomly shuffle animal IDs, then assigns them to treatment groups to ensure unbiased allocation.
Before each dose, animals were lightly sedated with an intramuscular injection of ketamine (5–10 mg/kg), and a blood sample was drawn. […] NHPs were euthanized by administering an overdose of injected sodium pentobarbital IV (150–200 mg/kg) and confirmed by thoracotomy and exsanguination. Terminal plasma, cerebrospinal fluid, and brain tissue were collected at necropsy. […] The brain was cut into six roughly 1-cm thick coronal segments before snap-freezing by floating on liquid nitrogen. The right hemispheres of the four interior coronal brain segments were cryosectioned and analyzed by matrix-assisted laser desorption/ionization mass spectrometry imaging (MALDI MSI) to quantitatively assess the tissue distribution of the dosed compounds[40]–[43]. After MALDI MSI analysis, tissue sections were stained with hematoxylin and eosin (H&E) for correlation of ion images with underlying tissue histology.
Brain tissue was weighed in polypropylene tubes, then phosphate-buffered saline (PBS) was added to the tissue sample before homogenization (1:4 wt: vol).
The LC-MS/MS system includes an API-6500 triple quadrupole mass spectrometer (Sciex, Framingham, MA) and an ExionLC system (ExionLC Controller, ExionLC AD Column Oven, ExionLC AD Pump, and ExionLC AD Multiplate Sampler; all from Sciex). Data were acquired and processed using Analyst® 1.7.2 software (Sciex). An Acquity UHPLC BEH C18 analytical column (1.7-µm, 2.1 × 50 mm; Waters, Milford, MA) was applied in sample analysis.
First, the brain tissue partition coefficient Kp, brain was calculated using Eq. (1).
Where Css, brain is the mean steady-state total drug concentration in brain tissue, and Css, plasma is the mean steady-state total drug concentration in plasma (both measured by LC-MS/MS). […] Finally, Kp, uu, brain was calculated using Eq. (2).2 [drawing 2]

Data set [1] is described as follows: Protein binding by rapid equilibrium dialysis, rhesus macaque brain and plasma. Conditions: rhesus monkey, pH 7.4. The text has this:
(§1) The luciferase-transfected human breast cancer cell line (MDA231-BrM2-831) was purchased from Memorial Sloan Kettering Cancer Center (New York, NY). […] Deuterated olaparib (olaparib-d8) was purchased from Alsachim (Illkirch Graffenstaden, France). Cynomolgus macaque brain tissue (lot #CYN252598), rhesus macaque brain tissue (lot #RHS24901), rhesus macaque plasma (lot #RHS24900), CD1 mouse brain tissue (lot #MSE343926), and CD1 mouse plasma (lot #MSE343926) used in the protein-binding assays were obtained from BioIVT (Westbury, NY).
(§2) Brain (diluted 1:4 [5×] in PBS) or plasma (undiluted) were spiked with each test compound and applied to each matrix. Aliquots of each mixture were added to the donor wells of a rapid equilibrium dialysis plate in triplicate, and blank PBS was added to each receiver well, at volumes recommended by the manufacturer. Plates were incubated with shaking at 200 rpm for 4 h at 37 °C. At the end of incubation, samples were collected from each donor and receiver well. Samples were matrix-matched with the addition of an equivalent volume of blank matrix to each receiver sample and blank PBS to each donor sample. Additional samples were collected from each incubation mixture at the beginning (T = 0 min) and end (T = 240 min) of incubation for determination of stability, and matrix-matched with PBS as described above. The resultant samples were extracted by protein precipitation with acetonitrile containing an analytical internal standard, centrifuged, and analyzed by LC-MS/MS.
On the technique in general: In equilibrium dialysis only unbound substance equilibrates across the membrane.

Data set [2] is described as follows: MALDI MSI of brain sections, mouse model of brain metastasis (MDA231-BrM2-831). The data set is classed as in vivo, NCr nude mice. An excerpt:
A luciferase-transfected human breast adenocarcinoma cell line (MDA 231-BRM2-831) was used to generate a metastatic brain tumor model in female athymic nude mice. […] NCr nude mice (strain: CrTac: NCr-Foxn1^nu; female; 5-7 weeks old; Taconic Biosciences (Germantown, NY)) were used for these studies. A power analysis was completed by a statistician to determine the appropriate sample sizes for each group to measure a statistically significant. […] Control mice (n = 10) underwent a sham IC procedure (needle insertion into the ventricle without cell injection. All mice were monitored for tumor development by bioluminescence imaging (BLI) approximately once weekly for ~ 45 days, beginning 1 h after cell injection. In vivo BLI was performed at ~ 10 min post-luciferin injection (corresponding to the peak bioluminescent signal) using an IVIS Spectrum-CT system (PerkinElmer, Waltham, MA). Imaging parameters were set to automatic exposure in the Living Image software, while the binning (8) and aperture (open f-stop) remained at the default settings for all BLI acquisitions. The imaging frequency was increased to twice weekly for mice that developed brain metastases (BMs) as indicated by increased bioluminescence in the cranial region. […] The exact tumor size was not measured as an endpoint of this study. […] Two hours after the final dose, mice were euthanized by CO2 asphyxiation. At necropsy, a terminal blood sample was collected via cardia puncture, and the brains were harvested and snap-frozen by floating on liquid nitrogen. […] From each plane, serial tissue sections were collected for MALDI MSI and for H&E staining, and immunohistochemistry (IHC) staining. Tissue trimmings from between each plane were collected, homogenized, and submitted for bioanalysis in addition to the terminal plasma samples. For the mouse metastases study, tissue sections were collected from five horizontal tissue planes starting from roughly 1 mm from the top of the tissue, and each subsequent tissue plane was separated by roughly 1 mm. […] For MALDI MSI analysis, sections were thaw-mounted onto indium tin oxide-coated slides (Delta Technologies, Ltd, Loveland, CO). For H&E and IHC analyses, tissue sections were collected onto superfrost glass slides (Fisher Scientific, Waltham, MA). Brain tissue trimmings from between each of the horizontal planes were pooled and collected into a pre-weighed vial for homogenization and LC-MS/MS bioanalysis (described in detail later). […] Arraymold, Ogden, UT). […] DMSO: […] […] Ion images were loaded into […] […] Statistical significance was set at p < 0.05.

Another data set concerns human P-gp. Conditions: MDCKII cells overexpressing human P-gp; cited from earlier work.
The nature of data set [3]: Protein binding by rapid equilibrium dialysis, CD1 mouse brain and plasma. Conditions: pH 7.4.
Text: as §1, §2

Setting [4] is: BM mice (niraparib n = 4, olaparib n = 3), oral once daily 5 days, niraparib 35 mg/kg or olaparib 50 mg/kg, 2 h after final dose, LOD 70 ng/g niraparib, 170 ng/g olaparib.

Consider `NC(=O)c1cccc2cn(-c3ccc([C@@H]4CCCNC4)cc3)nc12` [Niraparib], for which the Kp in the data set “in vivo” (Mean Kp) worked out at 3.18. Moreover, in the data set “in vivo” (Mean Kp), the Kp uu came out at 0.313. Besides, the free fraction (fraction unbound) at 4 h, 1 µM in data set [1] (plasma (undiluted)) is 0.366; in data set [3] (brain homogenate (diluted 1:4 [5×] in PBS)) it was 0.0295; in data set [3] (cynomolgus monkey, brain homogenate (diluted 1:4 [5×] in PBS)) it was 0.0361; in data set [3] (plasma (undiluted)), 0.22. Further, the concentration at 2 h in data set [2] (female, NCr nude (CrTac:NCr-Foxn1nu), mouse, brain (sections), oral, 35 mg/kg, read-out: MALDI MSI Brain sections, mean (SD)) is 519 ng/g; in data set [2] (female, NCr nude (CrTac:NCr-Foxn1nu), mouse, brain metastasis tumor tissue, oral, 35 mg/kg, all tumor-containing sections (n = 42) in all BM animals (n = 4), niraparib 35 mg/kg, read-out: MALDI MSI mean localized tumor concentration), approximately 1700 ng/g; in data set [2] (female, NCr nude (CrTac:NCr-Foxn1nu), mouse, brain tumor, oral, 35 mg/kg, read-out: MALDI MSI Brain tumors, mean (SD)) it was 2400 ng/g; in data set [2] (female, NCr nude (CrTac:NCr-Foxn1nu), mouse, brain ventricles, oral, 35 mg/kg, all ventricle-containing sections (n = 48) in all BM animals, niraparib 35 mg/kg, read-out: MALDI MSI mean concentration in the ventricles), approximately 1860 ng/g; in data set [2] (female, NCr nude (CrTac:NCr-Foxn1nu), mouse, brain, oral, 35 mg/kg, read-out: MALDI MSI Brain sections, mean (SD)), 487 ng/g; in data set [2] (female, NCr nude (CrTac:NCr-Foxn1nu), mouse, whole brain (sections), oral, 35 mg/kg, Brain Metastases, Mouse 1, Fig. 2B, read-out: MALDI MSI Mean Conc., whole brain, individual mouse) it was 430 ng/g. Further, the concentration at 2 h in data set [2] (female, NCr nude (CrTac:NCr-Foxn1nu), mouse, whole brain (sections), oral, 35 mg/kg, Brain Metastases, Mouse 2, Fig. 2B, read-out: MALDI MSI Mean Conc., whole brain, individual mouse) stood at 640 ng/g; in data set [2] (female, NCr nude (CrTac:NCr-Foxn1nu), mouse, whole brain (sections), oral, 35 mg/kg, Brain Metastases, Mouse 3, Fig. 2B, read-out: MALDI MSI Mean Conc., whole brain, individual mouse) it was 540 ng/g; in data set [2] (female, NCr nude (CrTac:NCr-Foxn1nu), mouse, whole brain (sections), oral, 35 mg/kg, Brain Metastases, Mouse 4, Fig. 2B, read-out: MALDI MSI Mean Conc., whole brain, individual mouse), 340 ng/g; in data set [2] (female, NCr nude (CrTac:NCr-Foxn1nu), mouse, whole brain (sections), oral, 35 mg/kg, No Brain Metastases, Mouse 8, Fig. 2B, read-out: MALDI MSI Mean Conc., whole brain, individual mouse), 400 ng/g; in data set [2] (female, NCr nude (CrTac:NCr-Foxn1nu), mouse, whole brain (sections), oral, 35 mg/kg, No Brain Metastases, Mouse 9, Fig. 2B, read-out: MALDI MSI Mean Conc., whole brain, individual mouse), 560 ng/g; in data set [2] (female, NCr nude (CrTac:NCr-Foxn1nu), mouse, whole brain (sections), oral, 35 mg/kg, No Brain Metastases, Mouse 10, Fig. 2B, read-out: MALDI MSI Mean Conc., whole brain, individual mouse), 600 ng/g. The same molecule came in with a Kp at 2 h in data set [2] (female, NCr nude (CrTac:NCr-Foxn1nu), mouse, oral, 35 mg/kg, BM mice, mean brain tumor ROI total concentration by MALDI MSI versus terminal plasma total concentration) of 0.945. For the same molecule, in the data set with human P-gp, the P-gp substrate status result is given as “substrates for P-gp”.

For `O=C(c1cc(Cc2n[nH]c(=O)c3ccccc23)ccc1F)N1CCN(C(=O)C2CC2)CC1` [Olaparib], the “Kp, brain” value in “in vivo” turned out to be 0.044. For the same molecule, in the data set “in vivo”, the “Kp, uu, brain” value came to 0.028. Moreover, the values for the Kp in “in vivo” (Kp) and in the data set “in vivo” (Mean Kp) were 0.037 and 0.041, respectively. For the same molecule, the Kp uu in the data set “in vivo” (Kp) was 0.024; in the data set “in vivo” (Mean Kp) it was 0.026. For the same molecule, the unbound share (fraction unbound) at 4 h, 1 µM in data set [1] (brain homogenate) was determined as 0.194; in data set [1] (plasma) it was 0.301; in data set [3] (CD1, mouse, brain homogenate) it was 0.23. Also, the “MALDI MSI Brain sections, mean (SD)” value is given as “< LOD” in data set [2] (setting [4]) and “< LOD” in data set [2] (No BM mice (n = 3), oral once daily 5 days, niraparib 35 mg/kg or olaparib 50 mg/kg, 2 h after final dose, LOD 70 ng/g niraparib, 170 ng/g olaparib). Also, in data set [2] (setting [4]), the “MALDI MSI Brain tumors, mean (SD)” value was “< LOD”. For the same molecule, in the data set on human P-gp, the P-gp substrate status result is on record as “substrates for P-gp”. The molecule also had a Fu in data set [3] (CD1, mouse, plasma, 4 h, 1 µM) of 35.2%.
